Assay results as given in patent publication US20240408152A1, “NOVEL ENTEROCOCCUS FAECIUM LCM001 STRAIN, AND USE THEREOF” (MBIOMETHERAPEUTICS CO., LTD., priority 2021, published 2024).
Converted amounts (≈) assume the structure as drawn. Read-outs that look alike come from different tables or passages of the source.

Tested on: human non-small cell lung cancer (NSCLC) A549 cells
Assay: MTT cell viability assay, lung cancer cells
Assay type: cell-based
Experimental: The human non-small cell lung cancer (NSCLC) A549 cells were cultured in RPMI 1640 culture medium supplemented with 10% fetal bovine serum (FBS) and 1% penicillin/streptomycin in a incubator at 37° C. in a 5% CO2. Human normal fibroblast lung cell Wi38 were cultured in MEM culture medium supplemented with 10% FBS and 1% penicillin/streptomycin.
The cell viability rate was measured using MTT [3-(4,5-dimethylthiazol-2-yl)-2,5-diphenyl-tetrazolium bromide] assay. Specifically, lung cancer cells (A549, 7×10^3 cells/well), colon cancer cells (HCT-15, 5×10^3 cells/well), liver cancer cells (Sk-hep-1, 5×10^3 cells/well), pancreatic cancer cells (PANC-1, 5×10^3 cells/well), and breast cancer cells (MCF-7, 2×10^3 cells/well) were seeded in a 96-well culture plate at 3 times repeatedly, and cultured overnight at 37° C. in 5% CO2 with RPMI 1640 medium containing 10% FBS. Subsequently, the cell-free supernatant was added to each well at concentrations of 1×, 2×, 5×, and 10×, with 100 μL per well, and cultured for 24 hours at 37° C. in 5% CO2.
To assess cell apoptosis, MTT reagent at a concentration of 5 mg/ml was added to each well with 10 μL per well and reacted for 4 hours at 37° C. in 5% CO2. The cells were then dissolved in dimethyl sulfoxide (DMSO, 100 μL/well), and the absorbance at 570 nm was measured using a microplate reader.
The cell viability rate was calculated as a percentage using the following formula. The cell toxicity test was conducted in triplicate, and the values are presented as mean±standard deviation.
To confirm the efficacy of Cyclo(L-pro-L-tyr), the active ingredient of Enterococcus faecium LCM001, as well as its derivatives on apoptosis of non-small cell lung cancer A549 cells, the inventors conducted an MTT assay on Cyclo(L-pro-L-tyr), Cyclo(L-Phe-L-pro), Cyclo(L-Phe-trans-4-hydroxy-L-Pro), Cyclo(L-Pro-D-Phe), and Cyclo(Tyr-Hpro), and calculated their IC50 values.

SMILES	IC50 [µg/mL]	IC50 (Homo sapiens, read-out: IC50) [µg/mL]
O=C1NC(Cc2ccc(O)cc2)C(=O)N2CCC[C@@H]12 (stereo partly drawn) [Cyclo(L-pro-L-tyr), Cyclo(L-Pro-L-Tyr)]	–	99.6 (≈ 382 µM)
O=C1N[C@@H](Cc2ccccc2)C(=O)N2CCC[C@@H]12 [Cyclo(L-Phe-L-pro)]	26.1 (≈ 107 µM)	–

Further lines, with some results ahead:

IC50 [µg/mL]	SMILES	IC50 (Homo sapiens, read-out: IC50) [µg/mL]
57.58 (≈ 221 µM)	O=C1N[C@@H](Cc2ccccc2)C(=O)N2C[C@H](O)C[C@@H]12 (relative stereo) [Cyclo(L-Phe-trans-4-hydroxy-L-Pro)]	–
94.56 (≈ 387 µM)	O=C1NC(Cc2ccccc2)C(=O)N2CCCC12 [Cyclo(L-Pro-D-Phe)]	–
119 (≈ 431 µM)	O=C1NC(Cc2ccc(O)cc2)C(=O)N2CC(O)CC12 (centres unmarked) [Cyclo(Tyr-Hpro)]	–
